# In patent publication US12404239B2, “Modulators of BCL6 as ligand directed degraders” (Celgene Corporation, priority 2022, dated 2025):
# Biological target: T1, BCL6 (Homo sapiens, UniProt P41182)
# T1 construct: HiBiT-tag knocked into endogenous BCL6 locus using CRISPR; endogenous in cells; host or cells: DHL-4_BCL6_HiBiT cells (CRISPR knock-in)
# Experiment: BCL6_HiBiT degradation assay (2 h)
# Type: cell-based
# Details: DHL-4_BCL6_HiBiT cells, read-out: YCon (% remaining maximal effect)
# Summary of the method: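 DHL-4 cells carrying CRISPR HiBiT knock-in at endogenous BCL6, treated 2 h at 37 °C with 10-point 3-fold dilutions from 1-10 μM. BCL6 level read by Nano-Glo HiBiT lytic luminescence normalized to DMSO; four-parameter fit gives degradation EC50 and Yconstant (% remaining at maximal effect).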
row,Structure (SMILES),Percent BCL6 remaining at maximal degradation (Ycon) [%]
1,"CN1C(=O)Cc2cc(Nc3nc(N4CCN(Cc5ccc6c(C7CCC(=O)NC7=O)nn(C)c6c5)CC4)ncc3Cl)ccc21 (centres unmarked) [Example 17, 3-(6-((4-(5-chloro-4-((1-methyl-2-oxoindolin-5-yl)amino)pyrimidin-2-yl)piperazin-1-yl)methyl)-1-methyl-1H-indazol-3-yl)piperidine-2,6-dione]",> 60
2,"Cn1nc(C2CCC(=O)NC2=O)c2ccc(NC3CCN(c4ncc(Cl)c(Nc5ccc6c(c5)CC(=O)N6CC(F)(F)F)n4)CC3)cc21 (centres unmarked) [Example 18, 3-(6-((1-(5-chloro-4-((2-oxo-1-(2,2,2-trifluoroethyl)indolin-5-yl)amino)pyrimidin-2-yl)piperidin-4-yl)amino)-1-methyl-1H-indazol-3-yl)piperidine-2,6-dione]",> 60
3,"C[C@H]1C[C@@H](Nc2ccc3c(C4CCC(=O)NC4=O)nn(C)c3c2)CCN1c1ncc(Cl)c(Nc2ccc3c(c2)CC(=O)N3C)n1 (stereo partly drawn) [Example 19, 3-(6-(((2S,4S)-1-(5-chloro-4-((1-methyl-2-oxoindolin-5-yl)amino)pyrimidin-2-yl)-2-methylpiperidin-4-yl)amino)-1-methyl-1H-indazol-3-yl)piperidine-2,6-dione]",20 to 60
4,"C[C@H]1C[C@@H](N(C)c2ncc(Cl)c(Nc3ccc4c(c3)CC(=O)N4C)n2)CCN1c1ccc2c(C3CCC(=O)NC3=O)nn(C)c2c1 (stereo partly drawn) [Example 20, 3-(6-((2S,4S)-4-((5-chloro-4-((1-methyl-2-oxoindolin-5-yl)amino)pyrimidin-2-yl)(methyl)amino)-2-methylpiperidin-1-yl)-1-methyl-1H-indazol-3-yl)piperidine-2,6-dione]",20 to 60
5,"C[C@@H]1C[C@H](N(C)c2ccc3c(C4CCC(=O)NC4=O)nn(C)c3c2)CCN1c1ncc(Cl)c(Nc2ccc3c(c2)CC(=O)N3C)n1 (stereo partly drawn) [Example 21, 3-(6-(((2R,4R)-1-(5-chloro-4-((1-methyl-2-oxoindolin-5-yl)amino)pyrimidin-2-yl)-2-methylpiperidin-4-yl)(methyl)amino)-1-methyl-1H-indazol-3-yl)piperidine-2,6-dione]",> 60
6,"C[C@@H]1C[C@H](Nc2ccc3c(C4CCC(=O)NC4=O)nn(C)c3c2)CCN1c1ncc(Cl)c(Nc2ccc3c(c2)CC(=O)N3C)n1 (stereo partly drawn) [Example 22, 3-(6-(((2R,4R)-1-(5-chloro-4-((1-methyl-2-oxoindolin-5-yl)amino)pyrimidin-2-yl)-2-methylpiperidin-4-yl)amino)-1-methyl-1H-indazol-3-yl)piperidine-2,6-dione]",> 60
7,"C[C@@H]1C[C@@H](Nc2ccc3c(C4CCC(=O)NC4=O)nn(C)c3c2)CCN1c1ncc(Cl)c(Nc2ccc3c(c2)CC(=O)N3C)n1 (stereo partly drawn) [Example 23, 3-(6-(((2R,4S)-1-(5-chloro-4-((1-methyl-2-oxoindolin-5-yl)amino)pyrimidin-2-yl)-2-methylpiperidin-4-yl)amino)-1-methyl-1H-indazol-3-yl)piperidine-2,6-dione]",> 60
8,"C[C@H]1C[C@@H](N(C)c2ccc3c(C4CCC(=O)NC4=O)nn(C)c3c2)CCN1c1ncc(Cl)c(Nc2ccc3c(c2)CC(=O)N3C)n1 (stereo partly drawn) [Example 24, 3-(6-(((2S,4S)-1-(5-chloro-4-((1-methyl-2-oxoindolin-5-yl)amino)pyrimidin-2-yl)-2-methylpiperidin-4-yl)(methyl)amino)-1-methyl-1H-indazol-3-yl)piperidine-2,6-dione]",> 60
9,"C[C@@H]1C[C@@H](N(C)c2ccc3c(C4CCC(=O)NC4=O)nn(C)c3c2)CCN1c1ncc(Cl)c(Nc2ccc3c(c2)CC(=O)N3C)n1 (stereo partly drawn) [Example 25, 3-(6-(((2R,4S)-1-(5-chloro-4-((1-methyl-2-oxoindolin-5-yl)amino)pyrimidin-2-yl)-2-methylpiperidin-4-yl)(methyl)amino)-1-methyl-1H-indazol-3-yl)piperidine-2,6-dione]",> 60
10,"C[C@@H]1CN(c2ncc(Cl)c(Nc3ccc4c(c3)CC(=O)N4C)n2)C[C@H](C)N1c1ccc2c(C3CCC(=O)NC3=O)nn(C)c2c1 (stereo partly drawn) [Example 26, 3-(6-((2S,6R)-4-(5-chloro-4-((1-methyl-2-oxoindolin-5-yl)amino)pyrimidin-2-yl)-2,6-dimethylpiperazin-1-yl)-1-methyl-1H-indazol-3-yl)piperidine-2,6-dione]",> 60
11,"C[C@@H]1CN(c2ccc3c(C4CCC(=O)NC4=O)nn(C)c3c2)C[C@@H](C)N1c1ncc(Cl)c(Nc2ccc3c(c2)CC(=O)N3C)n1 (stereo partly drawn) [Example 28, 3-(6-((3R,5R)-4-(5-chloro-4-((1-methyl-2-oxoindolin-5-yl)amino)pyrimidin-2-yl)-3,5-dimethylpiperazin-1-yl)-1-methyl-1H-indazol-3-yl)piperidine-2,6-dione]",> 60
12,"C[C@H]1CN(c2ccc3c(C4CCC(=O)NC4=O)nn(C)c3c2)C[C@H](C)N1c1ncc(Cl)c(Nc2ccc3c(c2)CC(=O)N3C)n1 (stereo partly drawn) [Example 29, 3-(6-((3S,5S)-4-(5-chloro-4-((1-methyl-2-oxoindolin-5-yl)amino)pyrimidin-2-yl)-3,5-dimethylpiperazin-1-yl)-1-methyl-1H-indazol-3-yl)piperidine-2,6-dione]",< 20
13,"C[C@@H]1CN(c2ccc3c(C4CCC(=O)NC4=O)nn(C)c3c2)C[C@H](C)N1c1ncc(Cl)c(Nc2ccc3c(c2)CC(=O)N3C)n1 (stereo partly drawn) [Example 30, 3-(6-((3R,5S)-4-(5-chloro-4-((1-methyl-2-oxoindolin-5-yl)amino)pyrimidin-2-yl)-3,5-dimethylpiperazin-1-yl)-1-methyl-1H-indazol-3-yl)piperidine-2,6-dione]",> 60
14,"CN1C(=O)Cc2cc(Nc3nc(N4CCCC(Nc5ccc6c(C7CCC(=O)NC7=O)nn(C)c6c5)CC4)ncc3Cl)ccc21 (centres unmarked) [Example 31, 3-(6-((1-(5-chloro-4-((1-methyl-2-oxoindolin-5-yl)amino)pyrimidin-2-yl)azepan-4-yl)amino)-1-methyl-1H-indazol-3-yl)piperidine-2,6-dione]",> 60
15,"CN1C(=O)Cc2cc(Nc3nc(N4CCCN(c5ccc6c(C7CCC(=O)NC7=O)nn(C)c6c5)CC4)ncc3Cl)ccc21 (centres unmarked) [Example 32, 3-(6-(4-(5-chloro-4-((1-methyl-2-oxoindolin-5-yl)amino)pyrimidin-2-yl)-1,4-diazepan-1-yl)-1-methyl-1H-indazol-3-yl)piperidine-2,6-dione]",> 60
16,"CN1C(=O)Cc2cc(Nc3nc(N4CC[C@@H](Nc5ccc6c(C7CCC(=O)NC7=O)nn(C)c6c5)[C@H](O)C4)ncc3Cl)ccc21 (stereo partly drawn) [Example 33, 3-(6-(((3R,4R)-1-(5-chloro-4-((1-methyl-2-oxoindolin-5-yl)amino)pyrimidin-2-yl)-3-hydroxypiperidin-4-yl)amino)-1-methyl-1H-indazol-3-yl)piperidine-2,6-dione]",< 20
17,"Cn1nc(C2CCC(=O)NC2=O)c2ccc(N3CCN(c4ncc(Cl)c(Nc5ccc6c(c5)CC(=O)N6)n4)CC3)cc21 (centres unmarked) [Example 34, 3-(6-(4-(5-chloro-4-((2-oxoindolin-5-yl)amino)pyrimidin-2-yl)piperazin-1-yl)-1-methyl-1H-indazol-3-yl)piperidine-2,6-dione]",> 60
18,"CN1C(=O)Cc2cc(Nc3nc(N4CCN(c5ccc6c(C7CCC(=O)NC7=O)nn(C)c6c5)CC4)ncc3Cl)ccc21 (centres unmarked) [Example 35, 3-[6-[4-[5-chloro-4-[(1-methyl-2-oxo-indolin-5-yl)amino]pyrimidin-2-yl]piperazin-1-yl]-1-methyl-indazol-3-yl]piperidine-2,6-dione]",> 60
19,"CN1C(=O)Cc2cc(Nc3nc(N4CCC(Nc5ccc6c(C7CCC(=O)NC7=O)nn(C)c6c5)CC4)ncc3C#N)ccc21 (centres unmarked) [Example 36, 2-(4-((3-(2,6-dioxopiperidin-3-yl)-1-methyl-1H-indazol-6-yl)amino)piperidin-1-yl)-4-((1-methyl-2-oxoindolin-5-yl)amino)pyrimidine-5-carbonitrile]",> 60
20,"CN1C(=O)Cc2cc(Nc3nc(N4CCN(c5ccc6c(C7CCC(=O)NC7=O)nn(C)c6c5)C(=O)C4)ncc3Cl)ccc21 (centres unmarked) [Example 37, 3-(6-(4-(5-chloro-4-((1-methyl-2-oxoindolin-5-yl)amino)pyrimidin-2-yl)-2-oxopiperazin-1-yl)-1-methyl-1H-indazol-3-yl)piperidine-2,6-dione]",> 60
21,"CC1C(=O)N(c2ccc3c(C4CCC(=O)NC4=O)nn(C)c3c2)CCN1c1ncc(Cl)c(Nc2ccc3c(c2)CC(=O)N3C)n1 (centres unmarked) [Example 38, 3-(6-(4-(5-chloro-4-((1-methyl-2-oxoindolin-5-yl)amino)pyrimidin-2-yl)-3-methyl-2-oxopiperazin-1-yl)-1-methyl-1H-indazol-3-yl)piperidine-2,6-dione]",> 60
22,"CC1CN(c2ccc3c(C4CCC(=O)NC4=O)nn(C)c3c2)C(=O)CN1c1ncc(Cl)c(Nc2ccc3c(c2)CC(=O)N3C)n1 (centres unmarked) [Example 39, 3-(6-(4-(5-chloro-4-((1-methyl-2-oxoindolin-5-yl)amino)pyrimidin-2-yl)-5-methyl-2-oxopiperazin-1-yl)-1-methyl-1H-indazol-3-yl)piperidine-2,6-dione]",> 60
23,"CN1C(=O)Cc2cc(Nc3nc(NC4CCN(c5ccc6c(C7CCC(=O)NC7=O)nn(C)c6c5)CC4)ncc3Cl)ccc21 (centres unmarked) [Example 40, 3-(6-(4-((5-Chloro-4-((1-methyl-2-oxoindolin-5-yl)amino)pyrimidin-2-yl)amino)piperidin-1-yl)-1-methyl-1H-indazol-3-yl)piperidine-2,6-dione]",> 60
